Activity calls are given as the source filed them. No cut-off for these calls is given here.
Columns and labels:
Cytochrome P450 2C19 = Cytochrome P450 2C19 (Homo sapiens, UniProt P33261); test: Inhibition of CYP2C19 in human liver microsomes up to 50 uM using S-mephenytoin as substrate measured after 20 mins in presence of NADPH by LC-MS/MS analysis; format: ADME
[1] = molecular target: Protein kinase C zeta type (Homo sapiens) (UniProt Q05513); test: Activity at human PKCzeta at 10 uM
[2] = Protein binding in mouse plasma at 10 uM measured after 4 hrs by LC-MS/MS analysis; format: ADME, cell-free; settings: read-out: PPB (converted)
[3] = Protein binding in human plasma at 10 uM measured after 4 hrs by LC-MS/MS analysis; format: ADME, cell-free; settings: read-out: PPB (converted)
Cytochrome P450 3A4 = Cytochrome P450 3A4 (Homo sapiens, UniProt P08684); test: Inhibition of CYP3A4 in human liver microsomes up to 50 uM using testosterone as substrate measured after 10 mins in presence of NADPH by LC-MS/MS analysis; format: ADME
[4] = Clearance in Beagle dog at 1 mg/kg, iv by UPLC-MS analysis; format: ADME, organism-based, Canis lupus familiaris; settings: in vivo
[5] = Half life in monkey at 1 mg/kg, iv by UPLC-MS analysis; format: ADME, organism-based, Macaca mulatta; settings: rhesus monkey, in vivo
[6] = Cmax in patient with advanced solid tumor at 160 mg, po administered once daily measured on day 15; format: ADME, organism-based; parameters: dose 160 mg, route oral; settings: human, in vivo
[7] = molecular target: Orexin/Hypocretin receptor type 1 (Homo sapiens) (UniProt O43613); test: Activity at human OX1 receptor at 10 uM
[8] = molecular target: Gastrin/cholecystokinin type B receptor (Homo sapiens) (UniProt P32239); test: Activity at human CCK2 receptor at 10 uM
[9] = molecular target: Motilin receptor (Homo sapiens) (UniProt O43193); test: Activity at human MTLR receptor at 10 uM
[10] = AUClast in patient with advanced solid tumor at 80 mg, po administered once daily measured on day 15; format: ADME, organism-based; parameters: dose 80 mg, route oral, time 0 - last; settings: human, in vivo
786-0 = test: Antitumor activity against human 786-O cells xenografted in SCID Beige mouse assessed as tumor regression at 0.3 to 3 mg/kg, po administered twice daily via gavage for 3 days measured 12 hrs post-last; format: functional, organism-based
[11] = molecular target: 5-hydroxytryptamine receptor 1A (Homo sapiens) (UniProt P08908); test: Activity at human 5-HT1A receptor at 10 uM
[12] = Cmin in patient with advanced solid tumor at 120 mg, po administered once daily measured on day 15 measured after 24 hrs; format: ADME, organism-based; settings: human, in vivo, read-out: Cmin
[13] = AUClast in patient with advanced solid tumor at 20 mg, po administered once daily measured on day 15; format: ADME, organism-based; parameters: dose 20 mg, route oral, time 0 - last; settings: human, in vivo
[14] = Plasma concentration in patient with advanced solid tumor at 20 mg, po administered once daily measured on day 15 after 24 hrs; format: ADME, organism-based; settings: human
[15] = Half life in Beagle dog at 1 mg/kg, iv by UPLC-MS analysis; format: ADME, organism-based, Canis lupus familiaris; settings: in vivo
[16] = molecular target: Potassium/sodium hyperpolarization-activated cyclic nucleotide-gated channel 4 (Homo sapiens) (UniProt Q9Y3Q4); test: Activity at human HCN4 at 10 uM
[17] = molecular target: Lysophosphatidic acid receptor 1 (Homo sapiens) (UniProt Q92633); test: Activity at human LPA1 receptor at 10 uM
[18] = molecular target: Glycogen synthase kinase-3 beta (Homo sapiens) (UniProt P49841); test: Activity at human GSK3beta at 10 uM
[19] = molecular target: C5a anaphylatoxin chemotactic receptor 1 (Homo sapiens) (UniProt P21730); test: Activity at human C5a receptor at 10 uM
[20] = molecular target: CDK9/cyclin T1 (Homo sapiens) (UniProt O60563+P50750); test: Activity at human CDK9/cyclinT1 at 10 uM; format: protein-complex assay
[21] = Dose normalized AUClast in Beagle dog at 5 mg/kg, po administered via gavage by UPLC-MS analysis; format: ADME, organism-based, Canis lupus familiaris; settings: in vivo
[22] = AUClast in patient with advanced solid tumor at 240 mg, po administered once daily measured on day 15; format: ADME, organism-based; parameters: dose 240 mg, time 0 - last, route oral; settings: human, in vivo
[23] = molecular target: Histamine H2 receptor (Homo sapiens) (UniProt P25021); test: Activity at human H2 receptor at 10 uM
[24] = molecular target: Kappa-type opioid receptor (Homo sapiens) (UniProt P41145); test: Activity at human kappa opioid receptor at 10 uM
[25] = molecular target: Prostacyclin receptor (Homo sapiens) (UniProt P43119); test: Activity at human Prostanoid IP1 receptor at 10 uM; format: functional
[26] = Volume of distribution at steady state in CD-1 mouse at 3 mg/kg, iv by UPLC-MS analysis; format: ADME, organism-based; settings: in vivo, read-out: Vdss
[27] = Toxicity in patient with advanced solid tumor assessed as anemia at 20 to 240 mg, po administered once daily; format: organism-based; settings: human, in vivo
[28] = Drug level in plasma of SCID Beige mouse xenografted with human 786-O cells at 0.3 mg/kg, po administered twice daily via gavage for 3 days measured 12 hrs post-last dose; format: ADME, organism-based
[29] = molecular target: Melanocortin receptor 5 (Homo sapiens) (UniProt P33032); test: Activity at human MC5 receptor at 10 uM
[30] = molecular target: Cyclin-dependent kinase 1/cyclin B1 (Homo sapiens) (UniProt P06493+P14635); test: Activity at human CDK1/cyclinB at 10 uM; format: protein-complex assay
Cytochrome P450 2D6 = Cytochrome P450 2D6 (Homo sapiens, UniProt P10635); test: Inhibition of CYP2D6 in human liver microsomes up to 50 uM using dextromethorphan as substrate measured after 10 mins in presence of NADPH by LC-MS/MS analysis; format: ADME
[31] = Plasma concentration in patient with advanced solid tumor at 80 mg, po administered once daily measured on day 15 after 24 hrs; format: ADME, organism-based; settings: human
[32] = molecular target: Protein kinase C theta type (Homo sapiens) (UniProt Q04759); test: Activity at human PKCtheta at 10 uM
[33] = molecular target: Muscarinic acetylcholine receptor M3 (Homo sapiens) (UniProt P20309); test: Activity at human M3 receptor at 10 uM
[34] = molecular target: Voltage-gated inwardly rectifying potassium channel KCNH2 (Homo sapiens, UniProt Q12809); test: Activity at human ERG at 10 uM
[35] = molecular target: Cannabinoid receptor 1 (Homo sapiens) (UniProt P21554); test: Activity at human CB1 receptor at 10 uM
[36] = molecular target: CDK3/Cyclin E (Homo sapiens) (UniProt P24864+Q00526); test: Activity at human CDK3/cyclinE at 10 uM; format: protein-complex assay
[37] = molecular target: Gonadotropin-releasing hormone receptor (Homo sapiens) (UniProt P30968); test: Activity at human GNRH at 10 uM
[38] = Plasma concentration in patient with advanced solid tumor at 120 mg, po administered once daily measured on day 15 after 24 hrs; format: ADME, organism-based; settings: human
[39] = Volume of distribution at steady state in Beagle dog at 1 mg/kg, iv by UPLC-MS analysis; format: ADME, organism-based, Canis lupus familiaris; settings: in vivo, read-out: Vdss

Sequence of C5a anaphylatoxin chemotactic receptor 1 (Homo sapiens) (P21730 whole entry): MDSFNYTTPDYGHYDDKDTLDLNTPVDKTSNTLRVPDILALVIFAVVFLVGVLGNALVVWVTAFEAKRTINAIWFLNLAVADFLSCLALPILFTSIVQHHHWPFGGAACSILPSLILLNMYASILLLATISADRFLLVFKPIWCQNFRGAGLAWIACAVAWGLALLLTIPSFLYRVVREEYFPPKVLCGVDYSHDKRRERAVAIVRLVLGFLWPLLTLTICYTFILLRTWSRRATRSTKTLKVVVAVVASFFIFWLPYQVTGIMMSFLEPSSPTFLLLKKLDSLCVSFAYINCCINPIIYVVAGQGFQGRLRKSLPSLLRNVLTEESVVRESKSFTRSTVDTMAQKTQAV
Sequence of Cannabinoid receptor 1 (Homo sapiens) (P21554 whole entry): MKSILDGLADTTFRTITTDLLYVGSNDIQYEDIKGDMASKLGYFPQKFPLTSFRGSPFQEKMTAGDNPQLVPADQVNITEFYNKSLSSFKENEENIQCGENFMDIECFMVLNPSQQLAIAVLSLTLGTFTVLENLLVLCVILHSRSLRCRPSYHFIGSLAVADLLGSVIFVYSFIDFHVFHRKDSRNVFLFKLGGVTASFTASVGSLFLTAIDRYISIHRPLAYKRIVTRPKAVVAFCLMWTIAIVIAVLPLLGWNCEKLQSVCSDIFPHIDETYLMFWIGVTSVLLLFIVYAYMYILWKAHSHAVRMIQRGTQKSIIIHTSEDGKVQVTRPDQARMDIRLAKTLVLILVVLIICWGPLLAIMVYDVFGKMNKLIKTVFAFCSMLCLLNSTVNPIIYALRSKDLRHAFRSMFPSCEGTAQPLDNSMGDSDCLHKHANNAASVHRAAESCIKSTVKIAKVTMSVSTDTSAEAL
Sequence of 5-hydroxytryptamine receptor 1A (Homo sapiens) (P08908 whole entry): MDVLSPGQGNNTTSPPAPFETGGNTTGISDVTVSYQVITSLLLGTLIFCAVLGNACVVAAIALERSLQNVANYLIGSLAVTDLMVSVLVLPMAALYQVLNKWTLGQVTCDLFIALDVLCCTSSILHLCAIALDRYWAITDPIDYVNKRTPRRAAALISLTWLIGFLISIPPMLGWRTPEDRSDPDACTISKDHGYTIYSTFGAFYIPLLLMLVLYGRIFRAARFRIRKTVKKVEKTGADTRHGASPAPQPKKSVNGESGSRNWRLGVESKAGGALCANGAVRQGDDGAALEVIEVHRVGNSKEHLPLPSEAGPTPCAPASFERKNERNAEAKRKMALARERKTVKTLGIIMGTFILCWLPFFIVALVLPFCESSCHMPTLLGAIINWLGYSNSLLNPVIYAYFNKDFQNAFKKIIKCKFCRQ
Sequence of Cytochrome P450 2C19 (P33261 whole entry): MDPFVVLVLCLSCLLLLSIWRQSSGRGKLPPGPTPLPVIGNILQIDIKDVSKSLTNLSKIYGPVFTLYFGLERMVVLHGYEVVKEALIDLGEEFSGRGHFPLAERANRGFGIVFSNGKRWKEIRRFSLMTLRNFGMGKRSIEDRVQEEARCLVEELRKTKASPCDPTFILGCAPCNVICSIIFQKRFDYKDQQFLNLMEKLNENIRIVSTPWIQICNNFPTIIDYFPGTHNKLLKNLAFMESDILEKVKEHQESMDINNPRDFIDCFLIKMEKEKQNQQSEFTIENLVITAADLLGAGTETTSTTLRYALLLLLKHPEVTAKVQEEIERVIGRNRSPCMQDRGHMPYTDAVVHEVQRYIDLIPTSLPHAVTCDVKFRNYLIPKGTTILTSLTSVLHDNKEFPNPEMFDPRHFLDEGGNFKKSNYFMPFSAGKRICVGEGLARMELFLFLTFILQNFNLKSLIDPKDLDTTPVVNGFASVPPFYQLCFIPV
Sequence of Lysophosphatidic acid receptor 1 (Homo sapiens) (Q92633 whole entry): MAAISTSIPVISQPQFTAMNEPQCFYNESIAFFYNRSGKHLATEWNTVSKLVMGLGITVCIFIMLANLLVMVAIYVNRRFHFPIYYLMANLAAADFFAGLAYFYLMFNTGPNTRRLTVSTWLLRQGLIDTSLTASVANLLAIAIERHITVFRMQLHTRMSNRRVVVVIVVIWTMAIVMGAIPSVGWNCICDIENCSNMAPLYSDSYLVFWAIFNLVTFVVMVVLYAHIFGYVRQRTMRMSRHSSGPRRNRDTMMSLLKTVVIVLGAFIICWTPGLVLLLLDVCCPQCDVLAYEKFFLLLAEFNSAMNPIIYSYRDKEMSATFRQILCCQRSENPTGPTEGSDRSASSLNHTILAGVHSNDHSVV
Sequence of Muscarinic acetylcholine receptor M3 (Homo sapiens) (P20309 whole entry, looked up): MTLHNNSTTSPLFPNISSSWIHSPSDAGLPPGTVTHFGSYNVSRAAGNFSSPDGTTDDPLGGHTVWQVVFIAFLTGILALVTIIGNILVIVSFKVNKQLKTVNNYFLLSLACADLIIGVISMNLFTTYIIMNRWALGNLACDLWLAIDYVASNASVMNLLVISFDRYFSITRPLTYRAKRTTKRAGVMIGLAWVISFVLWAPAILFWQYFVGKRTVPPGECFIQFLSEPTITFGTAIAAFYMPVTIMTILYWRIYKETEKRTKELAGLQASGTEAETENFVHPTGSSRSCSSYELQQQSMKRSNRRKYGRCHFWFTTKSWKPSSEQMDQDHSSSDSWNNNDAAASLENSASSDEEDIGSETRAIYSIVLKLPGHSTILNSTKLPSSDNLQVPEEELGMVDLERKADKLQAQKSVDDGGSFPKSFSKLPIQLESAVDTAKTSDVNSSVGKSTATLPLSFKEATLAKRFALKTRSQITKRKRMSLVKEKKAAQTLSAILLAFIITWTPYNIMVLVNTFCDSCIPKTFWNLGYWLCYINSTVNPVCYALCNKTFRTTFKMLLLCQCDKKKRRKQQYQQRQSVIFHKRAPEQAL
Sequence of Protein kinase C zeta type (Homo sapiens) (Q05513 whole entry): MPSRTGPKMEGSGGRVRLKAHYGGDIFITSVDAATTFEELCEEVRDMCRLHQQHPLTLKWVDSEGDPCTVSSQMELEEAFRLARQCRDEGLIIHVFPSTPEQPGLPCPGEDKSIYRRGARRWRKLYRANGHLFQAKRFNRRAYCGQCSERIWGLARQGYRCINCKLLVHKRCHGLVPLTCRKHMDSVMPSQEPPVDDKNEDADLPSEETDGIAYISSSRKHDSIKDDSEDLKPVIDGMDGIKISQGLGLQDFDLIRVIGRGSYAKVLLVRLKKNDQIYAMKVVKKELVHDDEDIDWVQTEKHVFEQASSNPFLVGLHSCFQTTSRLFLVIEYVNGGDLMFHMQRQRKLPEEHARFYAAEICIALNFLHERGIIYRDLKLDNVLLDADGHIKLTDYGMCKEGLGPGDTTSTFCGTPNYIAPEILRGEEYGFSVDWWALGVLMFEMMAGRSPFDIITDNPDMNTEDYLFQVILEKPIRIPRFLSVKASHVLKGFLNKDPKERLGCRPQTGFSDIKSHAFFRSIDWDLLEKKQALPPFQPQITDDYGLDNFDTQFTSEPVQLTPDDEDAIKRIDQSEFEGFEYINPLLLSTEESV
Sequence of Cytochrome P450 2D6 (P10635 whole entry): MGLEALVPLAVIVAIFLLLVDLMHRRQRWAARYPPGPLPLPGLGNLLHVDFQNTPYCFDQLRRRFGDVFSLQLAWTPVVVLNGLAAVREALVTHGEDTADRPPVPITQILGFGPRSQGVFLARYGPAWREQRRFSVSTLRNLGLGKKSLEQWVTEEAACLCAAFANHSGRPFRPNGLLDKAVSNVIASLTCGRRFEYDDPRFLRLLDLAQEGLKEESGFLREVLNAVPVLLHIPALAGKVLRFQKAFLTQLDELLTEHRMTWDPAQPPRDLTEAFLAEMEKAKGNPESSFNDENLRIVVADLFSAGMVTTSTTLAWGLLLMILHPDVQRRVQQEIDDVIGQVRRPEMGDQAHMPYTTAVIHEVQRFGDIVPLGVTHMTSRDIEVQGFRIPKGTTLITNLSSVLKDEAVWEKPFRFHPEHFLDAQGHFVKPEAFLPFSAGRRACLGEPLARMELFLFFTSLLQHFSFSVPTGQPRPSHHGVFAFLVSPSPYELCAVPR
Sequence of Kappa-type opioid receptor (Homo sapiens) (P41145 whole entry): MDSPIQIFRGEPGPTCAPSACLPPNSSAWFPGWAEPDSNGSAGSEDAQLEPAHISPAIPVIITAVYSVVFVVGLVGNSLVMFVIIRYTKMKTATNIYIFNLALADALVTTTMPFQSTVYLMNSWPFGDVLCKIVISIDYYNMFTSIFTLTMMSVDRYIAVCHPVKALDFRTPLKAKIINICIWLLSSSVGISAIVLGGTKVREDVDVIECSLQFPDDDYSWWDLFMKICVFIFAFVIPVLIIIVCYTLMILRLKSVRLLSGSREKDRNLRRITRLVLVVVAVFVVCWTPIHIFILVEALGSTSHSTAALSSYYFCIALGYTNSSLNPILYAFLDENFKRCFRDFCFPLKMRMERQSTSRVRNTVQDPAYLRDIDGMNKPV
Sequence of Cyclin-dependent kinase 1/cyclin B1 (Homo sapiens) (P06493 whole entry, looked up): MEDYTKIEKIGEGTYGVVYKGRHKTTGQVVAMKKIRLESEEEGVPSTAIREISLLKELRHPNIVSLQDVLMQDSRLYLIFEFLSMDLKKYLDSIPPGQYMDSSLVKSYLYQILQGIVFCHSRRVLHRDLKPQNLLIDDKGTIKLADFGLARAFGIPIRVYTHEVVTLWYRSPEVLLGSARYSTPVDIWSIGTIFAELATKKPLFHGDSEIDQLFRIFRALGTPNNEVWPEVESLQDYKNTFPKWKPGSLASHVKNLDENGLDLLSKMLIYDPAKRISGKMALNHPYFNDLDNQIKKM
Sequence of Cyclin-dependent kinase 1/cyclin B1 (Homo sapiens) (P14635 whole entry, looked up): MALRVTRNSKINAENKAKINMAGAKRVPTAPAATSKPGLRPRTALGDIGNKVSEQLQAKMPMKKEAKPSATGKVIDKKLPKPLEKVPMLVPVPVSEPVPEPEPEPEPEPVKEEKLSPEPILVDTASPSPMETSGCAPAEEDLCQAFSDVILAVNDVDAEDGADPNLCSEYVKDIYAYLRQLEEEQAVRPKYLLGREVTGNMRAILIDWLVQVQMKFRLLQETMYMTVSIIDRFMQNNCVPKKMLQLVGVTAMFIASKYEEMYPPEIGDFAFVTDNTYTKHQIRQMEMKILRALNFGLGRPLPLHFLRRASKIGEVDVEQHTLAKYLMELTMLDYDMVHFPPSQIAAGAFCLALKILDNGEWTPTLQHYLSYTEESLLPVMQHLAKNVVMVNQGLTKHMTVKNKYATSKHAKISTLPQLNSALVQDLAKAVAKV

Structure (SMILES): CS(=O)(=O)c1ccc(Oc2cc(F)cc(C#N)c2)c2c1[C@H](O)[C@H](F)[C@@H]2F [BELZUTIFAN]
- inhibition (INH) (Cytochrome P450 2C19): Not Active
- Activity [1]: inactive
- fraction unbound at 4 h, 10 µM [2]: 0.44
- fraction unbound at 4 h, 10 µM [3]: 0.48
- inhibition (INH) (Cytochrome P450 3A4): Not Active
- clearance [4]: 0.078 L/h/kg
- half-life [5]: 9.2 h
- Cmax [6]: 2 µg/mL
- Activity [7]: inactive
- Activity [8]: inactive
- Activity [9]: inactive
- AUC(0-t) [10]: 17.5 µg·h/mL
- Activity (786-0): Active
- Activity [11]: inactive
- concentration at 24 h [12]: 0.5 µg/mL
- AUC(0-t) [13]: 2.1 µg·h/mL
- concentration at 24 h [14]: 0.06 µg/mL
- half-life [15]: 14 h
- Activity [16]: inactive
- Activity [17]: inactive
- Activity [18]: inactive
- Activity [19]: inactive
- Activity [20]: inactive
- AUClast/dose [21]: 60 µM·h
- AUC(0-t) [22]: 28 µg·h/mL
- Activity [23]: inactive
- Activity [24]: inactive
- Activity [25]: inactive
- Vd [26]: 4.9 L/kg
- Activity [27]: Non-Toxic
- concentration at 12 h [28]: < 0.019 µg/mL
- Activity [29]: inactive
- Activity [30]: inactive
- inhibition (INH) (Cytochrome P450 2D6): Not Active
- concentration at 24 h [31]: 0.49 µg/mL
- Activity [32]: inactive
- Activity [33]: inactive
- Activity [34]: Not Active
- Activity [35]: inactive
- Activity [36]: inactive
- Activity [37]: inactive
- concentration at 24 h [38]: 0.71 µg/mL
- Vd [39]: 1.3 L/kg
